In ChEMBL document CHEMBL2346657, “Synthesis of novel 2-amino-4-(5'-substituted 2'-phenyl-1H-indol-3'-yl)-6-aryl-4H-pyran-3-carbonitrile derivatives as antimicrobial and antioxidant agents” (2013):
Calls of active or inactive are those of the source. The rule behind the calls is not given here.

Key:
Type in all cases: functional
[1] = Antioxidant activity assessed as metal chelating activity by measuring inhibition of ferrozine-Fe2+ complex formation at 25 to 100 ug/ml
Aspergillus flavus [2] = assay: Antimicrobial activity against Aspergillus flavus MTCC 1973 at 500 ug/ml after 72 hrs by cup plate method; conditions: MTCC 1973, 72 h, read-out: IZ
Aspergillus flavus [3] = assay: Antimicrobial activity against Aspergillus flavus MTCC 1973 at 750 ug/ml after 72 hrs by cup plate method; conditions: MTCC 1973, 72 h, read-out: IZ
Aspergillus flavus [4] = assay: Antimicrobial activity against Aspergillus flavus MTCC 1973 at 1000 ug/ml after 72 hrs by cup plate method; conditions: MTCC 1973, 72 h, read-out: IZ
Aspergillus terreus [5] = assay: Antimicrobial activity against Aspergillus terreus MTCC 1782 at 500 ug/ml after 72 hrs by cup plate method; conditions: MTCC 1782, 72 h, read-out: IZ
Aspergillus terreus [6] = assay: Antimicrobial activity against Aspergillus terreus MTCC 1782 at 750 ug/ml after 72 hrs by cup plate method; conditions: MTCC 1782, 72 h, read-out: IZ
Aspergillus terreus [7] = assay: Antimicrobial activity against Aspergillus terreus MTCC 1782 at 1000 ug/ml after 72 hrs by cup plate method; conditions: MTCC 1782, 72 h, read-out: IZ
Aspergillus oryzae [8] = assay: Antimicrobial activity against Aspergillus oryzae MTCC 3567 at 500 ug/ml after 72 hrs by cup plate method; conditions: MTCC 3567, 72 h, read-out: IZ
Aspergillus oryzae [9] = assay: Antimicrobial activity against Aspergillus oryzae MTCC 3567 at 750 ug/ml after 72 hrs by cup plate method; conditions: MTCC 3567, 72 h, read-out: IZ
Aspergillus oryzae [10] = assay: Antimicrobial activity against Aspergillus oryzae MTCC 3567 at 1000 ug/ml after 72 hrs by cup plate method; conditions: MTCC 3567, 72 h, read-out: IZ
Aspergillus niger [11] = assay: Antimicrobial activity against Aspergillus niger MTCC 281 at 500 ug/ml after 72 hrs by cup plate method; conditions: MTCC 281, 72 h, read-out: IZ
Aspergillus niger [12] = assay: Antimicrobial activity against Aspergillus niger MTCC 281 at 750 ug/ml after 72 hrs by cup plate method; conditions: MTCC 281, 72 h, read-out: IZ
Aspergillus niger [13] = assay: Antimicrobial activity against Aspergillus niger MTCC 281 at 1000 ug/ml after 72 hrs by cup plate method; conditions: MTCC 281, 72 h, read-out: IZ
Pseudomonas aeruginosa [14] = assay: Antimicrobial activity against Pseudomonas aeruginosa MTCC 1688 at 500 ug/ml after 24 hrs by cup plate method; conditions: MTCC 1688, 24 h, read-out: IZ
Pseudomonas aeruginosa [15] = assay: Antimicrobial activity against Pseudomonas aeruginosa MTCC 1688 at 750 ug/ml after 24 hrs by cup plate method; conditions: MTCC 1688, 24 h, read-out: IZ
Pseudomonas aeruginosa [16] = assay: Antimicrobial activity against Pseudomonas aeruginosa MTCC 1688 at 1000 ug/ml after 24 hrs by cup plate method; conditions: MTCC 1688, 24 h, read-out: IZ
Klebsiella pneumoniae [17] = assay: Antimicrobial activity against Klebsiella pneumoniae NCTC 13368 at 500 ug/ml after 24 hrs by cup plate method; conditions: NCTC 13368, 24 h, read-out: IZ
Klebsiella pneumoniae [18] = assay: Antimicrobial activity against Klebsiella pneumoniae NCTC 13368 at 750 ug/ml after 24 hrs by cup plate method; conditions: NCTC 13368, 24 h, read-out: IZ
Klebsiella pneumoniae [19] = assay: Antimicrobial activity against Klebsiella pneumoniae NCTC 13368 at 1000 ug/ml after 24 hrs by cup plate method; conditions: NCTC 13368, 24 h, read-out: IZ
Staphylococcus aureus [20] = assay: Antimicrobial activity against Staphylococcus aureus ATCC 29513 at 500 ug/ml after 24 hrs by cup plate method; conditions: ATCC 29513, 24 h, read-out: IZ
Staphylococcus aureus [21] = assay: Antimicrobial activity against Staphylococcus aureus ATCC 29513 at 750 ug/ml after 24 hrs by cup plate method; conditions: ATCC 29513, 24 h, read-out: IZ
Staphylococcus aureus [22] = assay: Antimicrobial activity against Staphylococcus aureus ATCC 29513 at 1000 ug/ml after 24 hrs by cup plate method; conditions: ATCC 29513, 24 h, read-out: IZ
Escherichia coli [23] = assay: Antimicrobial activity against Escherichia coli MTCC 723 at 500 ug/ml after 24 hrs by cup plate method; conditions: MTCC 723, 24 h, read-out: IZ
Escherichia coli [24] = assay: Antimicrobial activity against Escherichia coli MTCC 723 at 750 ug/ml after 24 hrs by cup plate method; conditions: MTCC 723, 24 h, read-out: IZ
Escherichia coli [25] = assay: Antimicrobial activity against Escherichia coli MTCC 723 at 1000 ug/ml after 24 hrs by cup plate method; conditions: MTCC 723, 24 h, read-out: IZ

| Structure (SMILES) | Activity [1] | zone of inhibition at 500 µg/mL (Aspergillus flavus [2]) [mm] | zone of inhibition at 750 µg/mL (Aspergillus flavus [3]) [mm] | zone of inhibition at 1000 µg/mL (Aspergillus flavus [4]) [mm] | zone of inhibition at 500 µg/mL (Aspergillus terreus [5]) [mm] | zone of inhibition at 750 µg/mL (Aspergillus terreus [6]) [mm] | zone of inhibition at 1000 µg/mL (Aspergillus terreus [7]) [mm] | zone of inhibition at 500 µg/mL (Aspergillus oryzae [8]) [mm] | zone of inhibition at 750 µg/mL (Aspergillus oryzae [9]) [mm] | zone of inhibition at 1000 µg/mL (Aspergillus oryzae [10]) [mm] | zone of inhibition at 500 µg/mL (Aspergillus niger [11]) [mm] | zone of inhibition at 750 µg/mL (Aspergillus niger [12]) [mm] | zone of inhibition at 1000 µg/mL (Aspergillus niger [13]) [mm] | zone of inhibition at 500 µg/mL (Pseudomonas aeruginosa [14]) [mm] | zone of inhibition at 750 µg/mL (Pseudomonas aeruginosa [15]) [mm] | zone of inhibition at 1000 µg/mL (Pseudomonas aeruginosa [16]) [mm] | zone of inhibition at 500 µg/mL (Klebsiella pneumoniae [17]) [mm] | zone of inhibition at 750 µg/mL (Klebsiella pneumoniae [18]) [mm] | zone of inhibition at 1000 µg/mL (Klebsiella pneumoniae [19]) [mm] | zone of inhibition at 500 µg/mL (Staphylococcus aureus [20]) [mm] | also measured |
| --- | --- | --- | --- | --- | --- | --- | --- | --- | --- | --- | --- | --- | --- | --- | --- | --- | --- | --- | --- | --- | --- |
| Cc1ccc(C2=CC(c3c(-c4ccccc4)[nH]c4ccc(Cl)cc34)c3c(N)nc(=S)[nH]c3O2)cc1 (stereo not given) | Active | 3 | 3 | 3 | 9 | 8 | 8 | 3 | 2 | 2 | 10 | 10 | 10 | 10 | 10 | 10 | 10 | 10 | 9 | 6 | zone of inhibition at 750 µg/mL (Staphylococcus aureus [21]): 3 mm; zone of inhibition at 1000 µg/mL (Staphylococcus aureus [22]): 2 mm; zone of inhibition at 500 µg/mL (Escherichia coli [23]): 10 mm; zone of inhibition at 750 µg/mL (Escherichia coli [24]): 9 mm; zone of inhibition at 1000 µg/mL (Escherichia coli [25]): 9 mm |
| Nc1nc(=O)[nH]c2c1C(c1c(-c3ccccc3)[nH]c3ccccc13)C=C(c1ccccc1)O2 (stereo not given) | Active | 10 | 9 | 9 | 6 | 4 | 3 | 10 | 10 | 10 | 5 | 5 | 3 | 12 | 12 | 13 | 10 | 10 | 10 | 10 | zone of inhibition at 750 µg/mL (Staphylococcus aureus [21]): 10 mm; zone of inhibition at 1000 µg/mL (Staphylococcus aureus [22]): 5 mm; zone of inhibition at 500 µg/mL (Escherichia coli [23]): 10 mm; zone of inhibition at 750 µg/mL (Escherichia coli [24]): 8 mm; zone of inhibition at 1000 µg/mL (Escherichia coli [25]): 5 mm |
| Nc1nc(=O)[nH]c2c1C(c1c(-c3ccccc3)[nH]c3ccc(Cl)cc13)C=C(c1ccccc1)O2 (stereo not given) | Active | 10 | 10 | 9 | 3 | 3 | 3 | 12 | 12 | 12 | 10 | 10 | 8 | 9 | 8 | 5 | 11 | 10 | 10 | 3 | zone of inhibition at 750 µg/mL (Staphylococcus aureus [21]): 3 mm; zone of inhibition at 1000 µg/mL (Staphylococcus aureus [22]): 3 mm; zone of inhibition at 500 µg/mL (Escherichia coli [23]): 10 mm; zone of inhibition at 750 µg/mL (Escherichia coli [24]): 10 mm; zone of inhibition at 1000 µg/mL (Escherichia coli [25]): 10 mm |
| Cc1ccc(C2=CC(c3c(-c4ccccc4)[nH]c4ccc(C)cc34)C(C#N)=C(N)O2)cc1 (stereo not given) | Active | 0 | 0 | 0 | 0 | 9 | 9 | 12 | 13 | 13 | 0 | 0 | 0 | 10 | 10 | 8 | 9 | 9 | 9 | 14 | zone of inhibition at 750 µg/mL (Staphylococcus aureus [21]): 14 mm; zone of inhibition at 1000 µg/mL (Staphylococcus aureus [22]): 14 mm; zone of inhibition at 500 µg/mL (Escherichia coli [23]): 8 mm; zone of inhibition at 750 µg/mL (Escherichia coli [24]): 4 mm; zone of inhibition at 1000 µg/mL (Escherichia coli [25]): 3 mm |
| Nc1nc(=S)[nH]c2c1C(c1c(-c3ccccc3)[nH]c3ccccc13)C=C(c1ccccc1)O2 (stereo not given) | Active | 9 | 9 | 9 | 5 | 5 | 5 | 9 | 8 | 8 | 12 | 12 | 14 | 2 | 2 | 2 | 9 | 8 | 8 | 2 | zone of inhibition at 750 µg/mL (Staphylococcus aureus [21]): 2 mm; zone of inhibition at 1000 µg/mL (Staphylococcus aureus [22]): 0 mm; zone of inhibition at 500 µg/mL (Escherichia coli [23]): 10 mm; zone of inhibition at 750 µg/mL (Escherichia coli [24]): 10 mm; zone of inhibition at 1000 µg/mL (Escherichia coli [25]): 11 mm |
| Cc1ccc(C2=CC(c3c(-c4ccccc4)[nH]c4ccc(C)cc34)c3c(nc4oc(=O)c(C#N)c(N)c4c3N)O2)cc1 (stereo not given) | Active | 12 | 12 | 13 | 9 | 4 | 4 | 10 | 11 | 10 | 0 | 0 | 0 | 9 | 6 | 4 | 11 | 10 | 10 | 3 | zone of inhibition at 750 µg/mL (Staphylococcus aureus [21]): 3 mm; zone of inhibition at 1000 µg/mL (Staphylococcus aureus [22]): 0 mm; zone of inhibition at 500 µg/mL (Escherichia coli [23]): 10 mm; zone of inhibition at 750 µg/mL (Escherichia coli [24]): 10 mm; zone of inhibition at 1000 µg/mL (Escherichia coli [25]): 10 mm |
| Nc1nc(=S)[nH]c2c1C(c1c(-c3ccccc3)[nH]c3ccc(Cl)cc13)C=C(c1ccccc1)O2 (stereo not given) | Active | 8 | 8 | 8 | 9 | 8 | 8 | 10 | 10 | 0 | 5 | 5 | 10 | 6 | 5 | 5 | 10 | 10 | 10 | 9 | zone of inhibition at 750 µg/mL (Staphylococcus aureus [21]): 9 mm; zone of inhibition at 1000 µg/mL (Staphylococcus aureus [22]): 9 mm; zone of inhibition at 500 µg/mL (Escherichia coli [23]): 10 mm; zone of inhibition at 750 µg/mL (Escherichia coli [24]): 8 mm; zone of inhibition at 1000 µg/mL (Escherichia coli [25]): 8 mm |
| O=c1[nH]cnc2c1C(c1c(-c3ccccc3)[nH]c3ccc(Cl)cc13)C=C(c1ccccc1)O2 (stereo not given) | Active | 12 | 12 | 13 | 10 | 10 | 9 | 12 | 13 | 13 | 7 | 7 | 7 | 3 | 3 | 3 | 9 | 9 | 9 | 12 | zone of inhibition at 750 µg/mL (Staphylococcus aureus [21]): 12 mm; zone of inhibition at 1000 µg/mL (Staphylococcus aureus [22]): 12 mm; zone of inhibition at 500 µg/mL (Escherichia coli [23]): 10 mm; zone of inhibition at 750 µg/mL (Escherichia coli [24]): 10 mm; zone of inhibition at 1000 µg/mL (Escherichia coli [25]): 11 mm |
